Laboratory results as given in patent US20130172324A1, “METHOD FOR TREATING CARDIOVASCULAR DISEASES USING RHO KINASE INHIBITOR COMPOUNDS” (priority 2008, published 2013).
Like-named read-outs stand apart in the source and are kept apart here.

System: rat trachea rings
Test: Tracheal relaxation assay (carbachol precontracted rings);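 note: isometric tension of rat tracheal rings in Krebs buffer with 1 µM indomethacin, compounds added cumulatively at 30 min intervals, basal tension subtracted, fit to Hill equation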
Conditions: for Percentage of carbachol-induced contraction at 1 μM compound, Avg % / Percentage of carbachol-induced contraction at 10 μM compound, Avg %: 1 μM carbachol; for Trachael Ring Contraction, %: average percentage of carbachol-induced rat tracheal ring contraction at 1 μM of test compound; for IC50: read-out: IC50 Avg
[1] = relaxation of 1 μM carbachol precontracted rat tracheal rings

Compound	Percentage of carbachol-induced contraction at 1 μM compound, Avg % [%]	Trachael Ring Contraction, % [%]	Percentage of carbachol-induced contraction at 10 μM compound, Avg % [%]	other results
CCOC(=O)COc1cccc(CN2CCC[C@H](Nc3ccc4[nH]ncc4c3)C2)c1 [Compound 1.200, (S)-ethyl 2-(3-((3-(1H-indazol-5-ylamino)piperidin-1-yl)methyl)phenoxy)acetate]	91.5	92	–	–
CC(=O)NCc1cccc(CN2CCC[C@H](Nc3ccc4[nH]ncc4c3)C2)c1 [Compound 1.197]	41.7	42	–	–
c1cc2cc(CN3CCC[C@H](Nc4ccc5[nH]ncc5c4)C3)ccc2[nH]1 [Compound 1.149, (S)-N-(1-((1H-indol-5-yl)methyl)piperidin-3-yl)-1H-indazol-5-amine]	34.4	34	–	–
Cc1ccc(CN2CCC[C@H](Nc3ccc4[nH]ncc4c3)C2)cc1OCCO [Compound 1.152, (S)-2-(5-((3-(1H-indazol-5-ylamino)piperidin-1-yl)methyl)-2-methylphenoxy)ethanol]	34.4	34	–	–
NCc1cccc(CN2CCC[C@H](Nc3ccc4[nH]ncc4c3)C2)c1 [Compound 1.184, (S)-N-(1-(3-(aminomethyl)benzyl)piperidin-3-yl)-1H-indazol-5-amine]	88.6	–	–	–
Cc1ccc(CN2CCC[C@@H](Nc3ccc4[nH]ncc4c3)C2)cc1O [Compound 1.173, (R)-5-((3-(1H-indazol-5-ylamino)piperidin-1-yl)methyl)-2-methylphenol]	32.8	33	–	–
CCS(=O)(=O)Nc1cccc(CN2CCC[C@H](Nc3ccc4[nH]ncc4c3)C2)c1 [Compound 1.124, (S)-N-(3-((3-(1H-indazol-5-ylamino)piperidin-1-yl)methyl)phenyl)ethanesulfonamide]	37.8	38	19.7	IC50 (Rattus norvegicus): 21 nM
Oc1cccc(CN2CCC[C@H](Nc3ccc4[nH]ncc4c3)C2)c1 [Compound 1.163, (S)-3-((3-(1H-indazol-5-ylamino)piperidin-1-yl)methyl)phenol]	35.4	35	–	–
NC(=O)Cn1ccc2ccc(CN3CCC[C@H](Nc4ccc5[nH]ncc5c4)C3)cc21 [Compound 1.107, (S)-2-(6-((3-(1H-indazol-5-ylamino)piperidin-1-yl)methyl)-1H-indol-1-yl)acetamide]	–	–	9.9	IC50 (Rattus norvegicus): 1240 nM
Clc1ccc(CN2CCC[C@H](Nc3ccc4[nH]ncc4c3)C2)cc1 [Compound 1.141, (S)-N-(1-(4-chlorobenzyl)piperidin-3-yl)-1H-indazol-5-amine]	35.3	35	–	–
O=S(=O)(c1cccc2cnccc12)N1CCCNCC1 [Fasudil, reference compound]	–	–	–	Percentage of carbachol-induced contraction at 10 μM compound, Avg % (listed as fasudil): 43.0%; IC50 Avg [1]: could not be obtained
Fc1ccc(CN2CCC[C@H](Nc3ccc4[nH]ncc4c3)C2)cc1F [Compound 1.072, (S)-N-(1-(3,4-difluorobenzyl)piperidin-3-yl)-1H-indazol-5-amine]	33.1	–	–	–
c1cc2cc(CN3CCC[C@H](Nc4ccc5[nH]ncc5c4)C3)ccc2o1 [Compound 1.150, (S)-N-(1-(benzofuran-5-ylmethyl)piperidin-3-yl)-1H-indazol-5-amine]	39.7	40	–	–
CS(=O)(=O)Nc1cccc(CN2CCC[C@H](Nc3cccc4cnccc34)C2)c1 [Compound 2.037, (S)-N-(3-((3-(isoquinolin-5-ylamino)piperidin-1-yl)methyl)phenyl)methanesulfonamide]	–	–	21.3	IC50 (Rattus norvegicus): 2120 nM
C[C@@H](N)c1ccc(C(=O)Nc2ccnc3[nH]ccc23)cc1 [Compound Y-39983, reference compound]	26.5	–	−6.0	IC50 [1]: 190 nM
Cc1cncc2cccc(S(=O)(=O)N3CCCNC[C@@H]3C)c12 [Compound H-1152, reference compound]	–	–	−6.5	–
CS(=O)(=O)Nc1cc(CN2CCC[C@@H](Nc3ccc4[nH]ncc4c3)C2)ccc1Cl [Compound 1.212, (R)-N-(5-((3-(1H-indazol-5-ylamino)piperidin-1-yl)methyl)-2-chlorophenyl)methanesulfonamide]	40.1	40	–	–
CSc1ccc(CN2CCC[C@H](Nc3ccc4[nH]ncc4c3)C2)cc1 [Compound 1.075, (S)-N-(1-(4-(methylthio)benzyl)piperidin-3-yl)-1H-indazol-5-amine]	39.1	39	–	–
Cc1ccc(CN2CCC[C@H](Nc3cccc4cnccc34)C2)cc1 [Compound 2.045, (S)-N-(1-(4-methylbenzyl)piperidin-3-yl)isoquinolin-5-amine]	–	–	13.6	IC50 (Rattus norvegicus): 2720 nM
CCS(=O)(=O)Nc1cccc(CN2CCC[C@@H](Nc3ccc4[nH]ncc4c3)C2)c1 [Compound 1.123, (R)-N-(3-((3-(1H-indazol-5-ylamino)piperidin-1-yl)methyl)phenyl)ethanesulfonamide]	46.7	47	4.6	IC50 (Rattus norvegicus): 45 nM
Cc1ccc(CN2CCC[C@H](Nc3ccc4[nH]ncc4c3)C2)cc1O [Compound 1.151, (S)-5-((3-(1H-indazol-5-ylamino)piperidin-1-yl)methyl)-2-methylphenol]	33.1	–	–	–
C#Cc1cccc(CN2CCC[C@H](Nc3ccc4[nH]ncc4c3)C2)c1 [Compound 1.153, (S)-N-(1-(3-ethynylbenzyl)piperidin-3-yl)-1H-indazol-5-amine]	40.9	41	–	–
c1cc2ccc(CN3CCC[C@H](Nc4ccc5[nH]ncc5c4)C3)cc2[nH]1 [Compound 1.148, (S)-N-(1-((1H-indol-6-yl)methyl)piperidin-3-yl)-1H-indazol-5-amine]	51.2	51	–	–
CS(=O)(=O)Nc1cc(CN2CCC[C@H](Nc3ccc4[nH]ncc4c3)C2)ccc1Cl [Compound 1.213, (S)-N-(5-((3-(1H-indazol-5-ylamino)piperidin-1-yl)methyl)-2-chlorophenyl)methanesulfonamide]	29.3	29	–	–
Cc1ccc(CN2CCC[C@H](Nc3ccc4[nH]ncc4c3)C2)cc1 [Compound 1.078, (S)-N-(1-(4-methylbenzyl)piperidin-3-yl)-1H-indazol-5-amine]	39.6	–	–	–
CSc1ccc(CN2CCC[C@@H](Nc3ccc4[nH]ncc4c3)C2)cc1 [Compound 1.074, (R)-N-(1-(4-(methylthio)benzyl)piperidin-3-yl)-1H-indazol-5-amine]	39.6	40	−15.1	IC50 (Rattus norvegicus): 729 nM
Clc1ccc(CN2CCC[C@@H](Nc3ccc4[nH]ncc4c3)C2)cc1 [Compound 1.132, (R)-N-(1-(4-chlorobenzyl)piperidin-3-yl)-1H-indazol-5-amine]	42.4	42	–	–
CCS(=O)(=O)Nc1cccc(CN2CC[C@@H](Nc3cccc4cnccc34)C2)c1 [Compound 2.041, (R)-N-(3-((3-(isoquinolin-5-ylamino)pyrrolidin-1-yl)methyl)phenyl)ethanesulfonamide]	–	–	−5.4	IC50 (Rattus norvegicus): 162 nM
O=C(O)COc1cccc(CN2CCC[C@H](Nc3ccc4[nH]ncc4c3)C2)c1 [Compound 1.196, (S)-2-(3-((3-(1H-indazol-5-ylamino)piperidin-1-yl)methyl)phenoxy)acetic acid]	96.2	–	–	–
